Experiments:
[1] = system: Plutella xylostella (Diamond Back Moth); experiment: Example B1: activity against Plutella xylostella, artificial diet in 24-well plates; format: in vivo; details: 120 h, application rate 200 ppm, L2 larvae on artificial diet, 5 days after infestation, read-out: effect in at least one of the two categories (mortality or growth inhibition)
Experimental: (§1) 24-well microtiter plates with artificial diet were treated with aqueous test solutions prepared from 10'000 ppm DMSO stock solutions by pipetting. After drying, the plates were infested with L2 larvae (10 to 15 per well). The samples were assessed for mortality and growth inhibition in comparison to untreated samples 5 days after infestation.

[2] = system: Myzus persicae (Green Peach Aphid); experiment: Example B2: activity against Myzus persicae, sprayed sunflower leaf discs; format: in vivo; details: foliar, 144 h, application rate 200 ppm, aphid population of mixed ages, 6 days after infestation
Experimental: (§2) Sunflower leaf discs were placed on agar in a 24-well microtiter plate and sprayed with aqueous test solutions prepared from 10'000 ppm DMSO stock solutions. After drying, the leaf discs were infested with an aphid population of mixed ages. The samples were assessed for mortality 6 days after infestation.

[3] = system: Myzus persicae (Green Peach Aphid); experiment: Example B3: activity against Myzus persicae, roots of pea seedlings in test solution; format: in vivo; details: 144 h, test rate 24 ppm, roots of infested pea seedlings in test solution, 6 days
Experimental: Roots of pea seedlings infested with an aphid population of mixed ages were placed directly in the aqueous test solutions prepared from 10'000 DMSO stock solutions. The samples were assessed for mortality 6 days after placing seedlings in test solutions.

[4] = system: Frankliniella occidentalis (Western Flower Thrips); experiment: Example B4: activity against Frankliniella occidentalis, sprayed sunflower leaf discs; format: in vivo; details: foliar, 168 h, application rate 200 ppm, population of mixed ages, 7 days after infestation
Experimental: as §2, with “in” for “in a”, “plates” for “plate”, “10'000” for “10'000 ppm”, “drying” for “drying,”, “a Frankliniella” for “an aphid”, “7” for “6”

[5] = system: Bemisia tabaci (Cotton White Fly); experiment: Example B5: activity against Bemisia tabaci, sprayed cotton leaf discs; format: in vivo; details: foliar, 144 h, application rate 200 ppm, adult white flies, 6 days after incubation
Experimental: Cotton leaf discs were placed on agar in 24-well microtiter plates and sprayed with aqueous test solutions prepared from 10'000 ppm DMSO stock solutions. After drying the leaf discs were infested with adult white flies. The samples were checked for mortality 6 days after incubation.

[6] = system: Euschistus heros (Neotropical Brown Stink Bug); experiment: Example B6: activity against Euschistus heros, sprayed soybean leaf; format: in vivo; details: 120 h, application rate 200 ppm, N-2 nymphs, 5 days after infestation, read-out: effect in at least one of the two categories (mortality or growth inhibition)
Experimental: Soybean leaf on agar in 24-well microtiter plates were sprayed with aqueous test solutions prepared from 10'000 ppm DMSO stock solutions. After drying the leaf were infested with N-2 nymphs. The samples were assessed for mortality and growth inhibition in comparison to untreated samples 5 days after infestation.

[7] = system: Diabrotica Balteata (Corn Root Worm); experiment: Example B7: activity against Diabrotica balteata, sprayed maize sprouts; format: in vivo; details: 96 h, application rate 200 ppm, L2 larvae, 4 days after infestation, read-out: effect in at least one of the two categories (mortality or growth inhibition)
Experimental: as §1, with “Maize sprouts placed onto an agar layer in 24-well” for “24-well”, “plates” for “plates with artificial diet”, “spraying.” for “pipetting.”, “(6” for “(10”, “10” for “15”, “4” for “5”

[8] = system: Spodoptera littoralis (Egyptian Cotton Leaf Worm); experiment: Example B7: activity against Spodoptera littoralis, sprayed cotton leaf discs; format: in vivo; details: foliar, 72 h, application rate 200 ppm, L1 larvae, 3 days after infestation
Experimental: Cotton leaf discs were placed onto agar in 24-well microtiter plates and sprayed with aqueous test solutions prepared from 10'000 ppm DMSO stock solutions. After drying the leaf discs were infested with five L1 larvae. The samples were assessed for mortality, anti-feeding effect, and growth inhibition in comparison to untreated samples 3 days after infestation. Control of Spodoptera littoralis by a test sample is given when at least one of the categories mortality, anti-feedant effect, and growth inhibition is higher than the untreated sample.

[9] = system: Tetranychus urticae (Two-Spotted Spider Mite); experiment: Example B7: activity against Tetranychus urticae, sprayed bean leaf discs; format: in vivo; details: foliar, 192 h, application rate 200 ppm, mixed population (mobile stages), 8 days after infestation
Experimental: Bean leaf discs on agar in 24-well microtiter plates were sprayed with aqueous test solutions prepared from 10'000 ppm DMSO stock solutions. After drying the leaf discs were infested with a mite population of mixed ages. The samples were assessed for mortality on mixed population (mobile stages) 8 days after infestation.

[10] = system: Thrips tabaci (Onion Thrips); experiment: Example B7: activity against Thrips tabaci, sprayed sunflower leaf discs; format: in vivo; details: foliar, 144 h, application rate 200 ppm, population of mixed ages, 6 days after infestation
Experimental: as §2, with “in” for “in a”, “plates” for “plate”, “drying” for “drying,”, “a Thrips” for “an aphid”

[11] = system: Spodoptera littoralis (Egyptian Cotton Leaf Worm); experiment: Example B7: activity against Spodoptera littoralis, compound in agar taken up by lettuce roots; format: in vivo; details: 144 h, test rate 12.5 ppm, systemic via lettuce roots, Spodoptera eggs, 6 days after infestation, read-out: effect in at least one of the three categories (mortality, anti-feeding, or growth inhibition)
Source text: Test compounds were applied by pipette from 10'000 ppm DMSO stock solutions into 24-well plates and mixed with agar. Lettuce seeds were placed onto the agar and the multi well plate was closed by another plate which contained also agar. After 7 days the compound was absorbed by the roots and the lettuce grew into the lid plate. The lettuce leaves were then cut off into the lid plate. Spodoptera eggs were pipetted through a plastic stencil onto a humid gel blotting paper and the lid plate was closed with it. The samples were assessed for mortality, anti-feedant effect and growth inhibition in comparison to untreated samples 6 days after infestation.

| melting point | Structure (SMILES) | percent effect (mortality or growth inhibition) at 200 ppm [1] [%] | mortality at 200 ppm [2] [%] | mortality at 24 ppm [3] [%] | mortality at 200 ppm [4] [%] | mortality at 200 ppm [5] [%] | percent effect (mortality or growth inhibition) at 200 ppm [6] [%] | percent effect (mortality or growth inhibition) at 200 ppm [7] [%] | percent control (mortality, anti-feedant effect or growth inhibition) at 200 ppm [8] [%] | mortality at 200 ppm [9] [%] | mortality at 200 ppm [10] [%] | percent effect (mortality, anti-feeding or growth inhibition) at 12.5 ppm [11] [%] |
| --- | --- | --- | --- | --- | --- | --- | --- | --- | --- | --- | --- | --- |
| – | CCS(=O)(=O)c1cc(N=S(C)(C)=O)cnc1-c1nc2cc(C(F)(F)F)ncc2n1C [P2, [5-ethylsulfonyl-6-[3-methyl-6-(trifluoromethyl)imidazo[4,5-c]pyridin-2-yl]-3-pyridyl]imino-dimethyl-oxo-λ^6-sulfane] | ≥ 80 | ≥ 80 | ≥ 80 | ≥ 80 | ≥ 80 | ≥ 80 | ≥ 80 | ≥ 80 | ≥ 80 | ≥ 80 | – |
| – | CCS(=O)(=O)c1cc(N=S(C)(C)=O)cnc1-c1nc2cc(C(F)(F)F)nnc2n1C [P9, [5-ethylsulfonyl-6-[7-methyl-3-(trifluoromethyl)imidazo[4,5-c]pyridazin-6-yl]-3-pyridyl]imidno-dimethyl-oxo-λ^6-sulfane] | ≥ 80 | ≥ 80 | ≥ 80 | ≥ 80 | ≥ 80 | ≥ 80 | ≥ 80 | ≥ 80 | – | ≥ 80 | – |
| – | CCS(=O)(=O)c1cc(N=S(C)(=O)C2CC2)cnc1-c1nc2cc(C(F)(F)F)ncc2n1C (stereo not drawn) [P3, cyclopropyl-[[5-ethylsulfonyl-6-[3-methyl-6-(trifluoromethyl)imidazo[4,5-c]pyridin-2-yl]-3-pyridyl]imino]-methyl-oxo-λ^6-sulfane] | ≥ 80 | ≥ 80 | – | ≥ 80 | ≥ 80 | ≥ 80 | ≥ 80 | ≥ 80 | ≥ 80 | – | ≥ 80 |
| 155 to 157 °C | CCS(=O)(=O)c1cc(N=S(C)(=O)c2ccc(C)cc2)cnc1-c1cn2cnc(C(F)(F)F)cc2n1 (stereo not drawn) [P10, [5-ethylsulfonyl-6-[7-(trifluoromethyl)imidazo[1,2-c]pyrimidin-2-yl]-3-pyridyl]imino-methyl-oxo-(p-tolyl)-λ^6-sulfane] | – | – | – | – | – | – | – | – | – | – | – |
| – | CCS(=O)(=O)c1cc(N=S(C)(=O)C2CC2)cnc1-c1nc2cc(C(F)(F)F)nnc2n1C (stereo not drawn) [P7, cyclopropyl-[[5-ethylsulfonyl-6-[7-methyl-3-(trifluoromethyl)imidazo[4,5-c]pyridazin-6-yl]-3-pyridyl]imino]-methyl-oxo-λ^6-sulfane] | ≥ 80 | ≥ 80 | ≥ 80 | ≥ 80 | ≥ 80 | ≥ 80 | ≥ 80 | ≥ 80 | ≥ 80 | – | ≥ 80 |
| – | CCS(=O)(=O)c1cc(N=S2(=O)CCC2)cnc1-c1nc2cc(C(F)(F)F)ncc2n1C [P11, 1-[[5-ethylsulfonyl-6-[3-methyl-6-(trifluoromethyl)imidazo[4,5-c]pyridin-2-yl]-3-pyridyl]imino]thietane 1-oxide] | ≥ 80 | ≥ 80 | ≥ 80 | ≥ 80 | ≥ 80 | ≥ 80 | ≥ 80 | ≥ 80 | ≥ 80 | – | – |
| 214 °C (dec.) | CCS(=O)(=O)c1cc(N=S2CCOCC2)cnc1-c1nc2cc(C(F)(F)F)ncc2n1C [P26, 2-[3-ethylsulfonyl-5-(1,4-oxathian-4-ylideneamino)-2-pyridyl]-3-methyl-6-(trifluoromethyl)imidazo[4,5-c]pyridine] | – | – | – | – | – | – | – | – | – | – | – |
| – | CCS(=O)(=O)c1cc(N=S2(=O)CCOCC2)cnc1-c1nc2cc(C(F)(F)F)nnc2n1C [P23, 4-[[5-ethylsulfonyl-6-[7-methyl-3-(trifluoromethyl)imidao[4,5-c]pyridazin-6-yl]-3-pyridyl]imino]-1,4-oxathiane 4-oxide] | ≥ 80 | ≥ 80 | ≥ 80 | – | ≥ 80 | ≥ 80 | – | – | ≥ 80 | – | – |
| – | CCS(=O)(=O)c1cc(N=S(=O)(CC)CC)cnc1-c1nc2cc(C(F)(F)F)ncc2n1C [P4, diethyl-[[5-ethylsulfonyl-6-[3-methyl-6-(trifluoromethyl)imidazo[4,5-c]pyridin-2-yl]-3-pyridyl]imino]-oxo-λ^6-sulfane] | ≥ 80 | ≥ 80 | – | – | ≥ 80 | ≥ 80 | ≥ 80 | ≥ 80 | ≥ 80 | – | – |
| 253 to 255 °C | CCS(=O)(=O)c1cc(N=S2(=O)CCOCC2)ccc1-c1nc2cc(C(F)(F)F)nnc2n1C [P25, 4-[3-ethylsulfonyl-4-[7-methyl-3-(trifluoromethyl)imidazo[4,5-c]pyridazin-6-yl]phenyl]imino-1,4-oxathiane 4-oxide] | – | – | – | – | – | – | – | – | – | – | – |

Reference: patent US10961248B2, “Pesticidally active heterocyclic derivatives with sulfur containing substituents” (SYNGENTA PARTICIPATIONS AG, priority 2016, dated 2021)
